Reference: patent US20080033029A1, “Treating Digestive Tract Conditions” (MAYO FOUNDATION FOR MEDICAL EDUCATION AND RESEARCH, priority 2004, published 2008)

Key:
[1] = tested on: ICC (interstitial cells of Cajal); assay: ICC culture: number of ICC with or without 5HT; type: cell-based, mouse; settings: 5HT 1 μM added every 12 hours for 24 hours; ICC from 6 day old Balb/C mice; c-kit antibody; untreated 8±0.5; P<0.0004; FIG. 1
Excerpt: (§1) Blinded parallel cultures were established (n=2, 6 day old Balb/C mice yielding 6 coverslips). […] ICC were identified using an antibody to c-kit and counted. Mast cells, which were identified by their characteristic size and round shape, were not included in the analysis.

[2] = tested on: ICC (interstitial cells of Cajal); assay: Organotypic culture of adult mouse small intestine explants: ICC number; type: cell-based; settings: 5HT 1 μM twice daily; explants from 6 month old mice; fixed at day 8; c-Kit staining, confocal 3D
Method: Briefly, one cm segments of mouse small intestine were cut, pinned flat mucosa side up, stripped of mucosa and submucosa layers, and placed into fresh, sterile-filtered Kreb's solution with 3 mM antibiotic. Krebs was removed, and DMEM (Dulbecco's Modified Eagle's Media) with 10% FBS (Fetal Bovine Serum) and 1% antibiotic/antimycotic was added to the culture. […] In the control explant, medium was added without 5HT. The tissue was fixed at day 8 and stained using an antibody to c-Kit. […]

[3] = tested on: ICC (interstitial cells of Cajal); 5HT2B receptor; assay: ICC culture: effect of 5HT2B receptor antagonist on the 5HT-induced increase in ICC number
Excerpt: as §1

| Compound | number of ICC per HPF [1] [ICC per HPF] | number of ICC in explant versus control explant [2] | number of ICC per HPF [3] [ICC per HPF] |
| --- | --- | --- | --- |
| NCCc1c[nH]c2ccc(O)cc12 [5HT, Serotonin] | 14±0.4 | greater number of ICC |  |
| Cc1cc(NC(=O)Nc2ccc3c(ccn3C)c2)sn1 [SB204741] |  |  | 9±0.2 |
